Test results as given in patent US6737383B1, “Herbicidal oxadiazolidines” (priority 1999, dated 2004).

What was measured:
bedstraw = experiment: Test B pre/postemergence bedstraw; format: in vivo, Galium aparine
Outline: (§1)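 Response is a visual 0-to-10 score relative to untreated plants, where 0 means no effect and 10 means complete control, taken twelve to sixteen days after application. Treatments went onto soil at planting and onto foliage of 1- to 4-leaf plants, using a surfactant-containing non-phytotoxic solvent.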

blackgrass = experiment: Test B pre/postemergence blackgrass; format: in vivo, Alopecurus myosuroides
Outline: as §1

surinam grass = experiment: Test B pre/postemergence surinam grass; format: in vivo, Brachiaria decumbens
Outline: as §1

cocklebur = experiment: Test B pre/postemergence cocklebur; format: in vivo, Xanthium strumarium
Outline: as §1

corn = experiment: Test B pre/postemergence corn; format: in vivo, Zea mays
Outline: as §1

crabgrass = experiment: Test B pre/postemergence crabgrass; format: in vivo, Digitaria sanguinalis
Outline: as §1

giant foxtail = experiment: Test B pre/postemergence giant foxtail; format: in vivo, Setaria faberii
Outline: as §1

morningglory = experiment: Test B pre/postemergence morningglory; format: in vivo, Ipomoea hederacea
Outline: as §1

pigweed = experiment: Test B pre/postemergence pigweed; format: in vivo, Amaranthus retroflexus
Outline: as §1

rape = experiment: Test B pre/postemergence rape; format: in vivo, Brassica napus
Outline: as §1

soybean = experiment: Test B pre/postemergence soybean; format: in vivo, Glycine max
Outline: as §1

sugar beet = experiment: Test B pre/postemergence sugar beet; format: in vivo, Beta vulgaris
Outline: as §1

velvetleaf = experiment: Test B pre/postemergence velvetleaf; format: in vivo, Abutilon theophrasti
Outline: as §1

wheat = experiment: Test B pre/postemergence wheat; format: in vivo, Triticum aestivum
Outline: as §1

wild oat = experiment: Test B pre/postemergence wild oat; format: in vivo, Avena fatua
Outline: as §1

purple nutsedge = experiment: Test B pre/postemergence purple nutsedge; format: in vivo, Cyperus rotundus
Outline: as §1

[1] = Postemergence, Rate 62 g/ha, scale of 0 to 10, 0 is no effect, 10 is complete control
[2] = Postemergence, Rate 500 g/ha, scale 0 to 10, 0 is no effect, 10 is complete control
[3] = Preemergence, Rate 62 g/ha, scale of 0 to 10 where 0 is no effect and 10 is complete control
[4] = Preemergence, Rate 125 g/ha, scale 0 to 10, 0 is no effect, 10 is complete control
[5] = Preemergence, Rate 500 g/ha, scale 0 to 10, 0 is no effect, 10 is complete control
[6] = Rate 250 g/ha, Postemergence, scale of 0 to 10 where 0 is no effect and 10 is complete control
[7] = Postemergence, Rate 125 g/ha, scale 0 to 10, 0 is no effect, 10 is complete control
[8] = Preemergence, Rate 500 g/ha, scale of 0 to 10 where 0 is no effect and 10 is complete control

CCOC(=O)C=C(Cn1c(=O)on(C(=O)N(c2ccc(F)cc2F)C(C)C)c1=O)OCC [Compound 519]
Bedstraw plant response rating (bedstraw; [1]): 0 | Plant response rating, Bedstraw (bedstraw; [2]): 0 | Plant response rating, Bedstraw (bedstraw; [3]): 0 | Bedstraw plant response rating (bedstraw; [4]): 0 | Bedstraw plant response rating (0 to 10 scale) (bedstraw; Preemergence, Rate 250 g/ha): 0 | Bedstraw plant response rating (bedstraw; [5]): 0 | Plant response rating, Bedstraw (bedstraw; [6]): 0 | Blackgrass plant response rating (blackgrass; [1]): 0 | Blackgrass plant response rating (blackgrass; [7]): 0 | Plant response rating, Blackgrass (blackgrass; [2]): 0 | Plant response rating, Blackgrass (blackgrass; [3]): 0 | Blackgrass plant response rating (blackgrass; [4]): 0 | Blackgrass plant response rating (0 to 10 scale) (blackgrass; Preemergence, Rate 250 g/ha): 4 | Blackgrass plant response rating (blackgrass; [8]): 4 | Plant response rating, Blackgrass (blackgrass; [6]): 0 | B. signalgrass plant response rating (surinam grass; [1]): 0 | B. signalgrass plant response rating (surinam grass; [7]): 0 | Plant response rating, B. signalgrass (surinam grass; [2]): 0 | Plant response rating, B. signalgrass (surinam grass; [3]): 0 | B. signalgrass plant response rating (surinam grass; [4]): 0 | B. signalgrass plant response rating (0 to 10 scale, 0 is no effect, 10 is complete control) (surinam grass; Preemergence, Rate 250 g/ha): 0 | B. signalgrass plant response rating (surinam grass; [5]): 0 | Plant response rating, B. signalgrass (surinam grass; [6]): 0 | Cocklebur plant response rating (cocklebur; [1]): 0 | Cocklebur plant response rating (cocklebur; [7]): 0 | Plant response rating, Cocklebur (cocklebur; [2]): 0 | Plant response rating, Cocklebur (cocklebur; [3]): 0 | Cocklebur plant response rating (cocklebur; [4]): 0 | Cocklebur plant response rating (0 to 10 scale) (cocklebur; Preemergence, Rate 250 g/ha): 0 | Cocklebur plant response rating (cocklebur; [8]): 0 | Plant response rating, Cocklebur (cocklebur; [6]): 0 | Corn plant response rating (corn; [1]): 0 | Corn plant response rating (corn; [7]): 0 | Plant response rating, Corn (corn; [2]): 0 | Plant response rating, Corn (corn; [3]): 0 | Corn plant response rating (corn; [4]): 0 | Corn plant response rating (0 to 10 scale) (corn; Preemergence, Rate 250 g/ha): 0 | Corn plant response rating (corn; [8]): 0 | Plant response rating, Corn (corn; [6]): 0 | Crabgrass plant response rating (crabgrass; [1]): 0 | Crabgrass plant response rating (crabgrass; [7]): 2 | Plant response rating, Crabgrass (crabgrass; [2]): 6 | Plant response rating, Crabgrass (crabgrass; [3]): 7 | Crabgrass plant response rating (crabgrass; [4]): 8 | Crabgrass plant response rating (0 to 10 scale) (crabgrass; Preemergence, Rate 250 g/ha): 10 | Crabgrass plant response rating (crabgrass; [8]): 10 | Plant response rating, Crabgrass (crabgrass; [6]): 6 | Giant foxtail plant response rating (giant foxtail; [1]): 4 | Giant foxtail plant response rating (giant foxtail; [7]): 4 | Plant response rating, Giant foxtail (giant foxtail; [2]): 6 | Plant response rating, Giant foxtail (giant foxtail; [3]): 10 | Giant foxtail plant response rating (giant foxtail; [4]): 10 | Giant foxtail plant response rating (0 to 10 scale) (giant foxtail; Preemergence, Rate 250 g/ha): 10 | Giant foxtail plant response rating (giant foxtail; [8]): 10 | Plant response rating, Giant foxtail (giant foxtail; [6]): 4 | Morningglory plant response rating (morningglory; [1]): 0 | Morningglory plant response rating (morningglory; [7]): 0 | Plant response rating, Morningglory (morningglory; [2]): 0 | Plant response rating, Morningglory (morningglory; [3]): 0 | Morningglory plant response rating (morningglory; [4]): 0 | Morningglory plant response rating (0 to 10 scale) (morningglory; Preemergence, Rate 250 g/ha): 0 | Morningglory plant response rating (morningglory; [8]): 0 | Plant response rating, Morningglory (morningglory; [6]): 0 | Redroot pigweed plant response rating (pigweed; [1]): 0 | Redroot pigweed plant response rating (pigweed; [7]): 0 | Plant response rating, Redroot pigweed (pigweed; [2]): 0 | Plant response rating, Redroot pigweed (pigweed; [3]): 0 | Redroot pigweed plant response rating (pigweed; [4]): 0 | Redroot pigweed plant response rating (0 to 10 scale) (pigweed; Preemergence, Rate 250 g/ha): 0 | Redroot pigweed plant response rating (pigweed; [8]): 0 | Plant response rating, Redroot pigweed (pigweed; [6]): 0 | Rape plant response rating (rape; [1]): 0 | Rape plant response rating (rape; [7]): 0 | Plant response rating, Rape (rape; [2]): 0 | Plant response rating, Rape (rape; [3]): 0 | Rape plant response rating (rape; [4]): 0 | Rape plant response rating (0 to 10 scale) (rape; Preemergence, Rate 250 g/ha): 0 | Rape plant response rating (rape; [8]): 0 | Plant response rating, Rape (rape; [6]): 0 | Soybean plant response rating (soybean; [1]): 3 | Soybean plant response rating (soybean; [7]): 3 | Plant response rating, Soybean (soybean; [2]): 4 | Plant response rating, Soybean (soybean; [3]): 0 | Soybean plant response rating (soybean; [4]): 0 | Soybean plant response rating (0 to 10 scale) (soybean; Preemergence, Rate 250 g/ha): 0 | Soybean plant response rating (soybean; [8]): 0 | Plant response rating, Soybean (soybean; [6]): 4 | Sugarbeets plant response rating (sugar beet; [1]): 0 | Sugarbeets plant response rating (sugar beet; [7]): 0 | Plant response rating, Sugarbeets (sugar beet; [2]): 0 | Plant response rating, Sugarbeets (sugar beet; [3]): 0 | Sugarbeets plant response rating (sugar beet; [4]): 0 | Sugarbeets plant response rating (0 to 10 scale) (sugar beet; Preemergence, Rate 250 g/ha): 0 | Sugarbeets plant response rating (sugar beet; [8]): 0 | Plant response rating, Sugarbeets (sugar beet; [6]): 0 | Velvetleaf plant response rating (velvetleaf; [1]): 2 | Velvetleaf plant response rating (velvetleaf; [7]): 2 | Plant response rating, Velvetleaf (velvetleaf; [2]): 4 | Plant response rating, Velvetleaf (velvetleaf; [3]): 0 | Velvetleaf plant response rating (velvetleaf; [4]): 0 | Velvetleaf plant response rating (0 to 10 scale) (velvetleaf; Preemergence, Rate 250 g/ha): 0 | Velvetleaf plant response rating (velvetleaf; [8]): 0 | Plant response rating, Velvetleaf (velvetleaf; [6]): 4 | Wheat plant response rating (wheat; [1]): 0 | Wheat plant response rating (wheat; [7]): 0 | Plant response rating, Wheat (wheat; [2]): 0 | Plant response rating, Wheat (wheat; [3]): 0 | Wheat plant response rating (wheat; [4]): 0 | Wheat plant response rating (0 to 10 scale) (wheat; Preemergence, Rate 250 g/ha): 0 | Wheat plant response rating (wheat; [8]): 0 | Plant response rating, Wheat (wheat; [6]): 0 | Wild oats plant response rating (wild oat; [1]): 0 | Wild oats plant response rating (wild oat; [7]): 0 | Plant response rating, Wild oats (wild oat; [2]): 0 | Plant response rating, Wild oats (wild oat; [3]): 0 | Wild oats plant response rating (wild oat; [4]): 0 | Wild oats plant response rating (0 to 10 scale) (wild oat; Preemergence, Rate 250 g/ha): 0 | Wild oats plant response rating (wild oat; [8]): 0 | Plant response rating, Wild oats (wild oat; [6]): 0 | Nutsedge plant response rating (purple nutsedge; [7]): 0 | Plant response rating, Nutsedge (purple nutsedge; [2]): 0 | Plant response rating, Nutsedge (purple nutsedge; [3]): 0 | Nutsedge plant response rating (purple nutsedge; [4]): 0 | Nutsedge plant response rating (purple nutsedge; [8]): 0
